This is an account of results in patent publication US20100311821A1, “Synthetic vector” (priority 2009, published 2010).

This experiment concerns λ-DNA. As to the kind of experiment: AFM imaging of DNA complexes. It counts as physicochemical, lambda phage. To be noted: 50 μg/ml λ-DNA, stoichiometric KWK 64 μM (16 μM PP4, 8 μM PP8), 10 mM sodium cacodylate buffer. As to the method: Preparation of DNA complexes. […] The mixture solution was vortexed for 30 seconds and allowed to equilibrate at room temperature for a few hours. The final DNA concentration was set at 50 μg/ml.
Characterization of DNA complexes structure by Atomic Force Microscopy. DNA complexes were deposited on freshly cleaved mica and then allowed to air dry. Tapping mode AFM imaging was performed on a Digital Instruments Nanoscope […] scanning probe microscope with a multimode head. Silicon probes (VistaProbes T300) with spring constant 40 N/m, resonant frequency, 300 kHz was used to obtain all images.
Long linear lambda phage DNA, λ-DNA, (double-stranded, 48 kbp, MW=3×10^7 Da, contour length—17 μm) in dilute aqueous solution (100 μg ml^−1 DNA in 10 mM pH=6.5 sodium cacodylate buffer containing 0.5 mM EDTA) was used for packaging studies. […] The final DNA concentration was set at 50 μg ml^−1 throughout the studies in this example. The DNA-KWK, DNA-PP4 and DNA-PP8 complex structures were investigated by atomic force microscope (“AFM”) on mica substrates.

With lysine-tryptophan-lysine [KWK], the “DNA compaction (AFM)” value is “No DNA compaction”.
